Source: patent US6900010B2, “Compositions and methods for detecting human immunodeficiency virus” (MUSC Foundation For Research Development, priority 1999, dated 2005)

Test system: HIV (strain GRCSF) in HeLaD4R4 cells
Assay: HIV infection of HeLaD4R4 cells with lacZ reporter, X-gal staining
Assay type: cell-based
Text: A recombinant cell line was established from human cervical cancer HeLa cells. The HeLa cells were cotransfected with an expression vector (pRepD4R4) and a vector (pTAR3Clac) at a 1:1 ratio. As shown in FIG. 2A the expression vector pRepD4R4 includes CD4 receptor and CXCR4 receptor genes that are separated by an IRES sequence. As shown FIG. 2B the vector pTAR3Clac includes a reporter sequence comprising a promoter region that includes three copies of TAR sequences and a CMV basic promoter, and a lacZ reporter gene whose expression is under the control of the promoter. The stably-transfected cells were selected by culturing in medium containing G418 at 900 μg/ml. Each clone of the cells selected was subsequently cultured in duplicates, and one of the duplicates was infected with a low titer HIV stock solution. The low-titer HIV stock was collected from supernatant of a HeLa cell culture that was transfected with a B-cell tropic HIV provirus DNA (strain GRCSF) and incubated for 3 days post transfection.
Upon infection of HIV contained in the stock solution, Tat protein expressed from the viral genome binds to TAR and induces expression of lacZ reporter gene to produce high level of β-galactosidase. The cell clones expressing β-galactosidase and stained blue with X-gal were identified, and the cells from the uninfected duplicate of the darkest blue colony were propagated. […]

With `Cc1cn([C@H]2C[C@H](N=[N+]=[N-])[C@@H](CO)O2)c(=O)[nH]c1=O` [AZT, zidovudine] the “cells infected and stained blue (HIV replication and infection)” value (AZT 100 μg/ml, four days of incubation, HeLaD4R4 cells) was “only a few clusters of cells were infected and stained blue” and the “expression of the reporter gene” value (in the presence of AZT, FIG. 3F compared with FIGS. 3B-3E) was “significantly reduced”.
